Experimental data published in BindingDB's records for doi:10.7270/Q269721H (Nmmlsc, 2010).

Each compound was assayed against Guanine nucleotide-binding protein G(o) subunit alpha (Homo sapiens, UniProt P09471) (assay: modulators of RGS7 binding to Galphao – multiplexed assay, additional SAR round, SAR follow-up (AID 2826)).
Sequence of Guanine nucleotide-binding protein G(o) subunit alpha (P09471 whole entry): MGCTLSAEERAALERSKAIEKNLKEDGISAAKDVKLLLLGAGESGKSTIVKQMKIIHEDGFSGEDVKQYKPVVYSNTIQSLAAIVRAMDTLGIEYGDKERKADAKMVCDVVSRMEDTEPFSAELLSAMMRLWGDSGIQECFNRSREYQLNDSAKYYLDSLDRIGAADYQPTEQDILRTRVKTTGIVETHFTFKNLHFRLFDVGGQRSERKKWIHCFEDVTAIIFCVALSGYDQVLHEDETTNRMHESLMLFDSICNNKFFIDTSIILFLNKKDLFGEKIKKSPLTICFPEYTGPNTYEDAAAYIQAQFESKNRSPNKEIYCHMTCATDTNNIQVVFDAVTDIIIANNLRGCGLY

Compound	EC50
O=C(NCCCn1ccnc1)c1sc2cc([N+](=O)[O-])ccc2c1Cl [3-chloro-N-[3-(1-imidazolyl)propyl]-6-nitro-1-benzothiophene-2-carboxamide]	> 30 µM
NC(=O)c1sc2cc([N+](=O)[O-])ccc2c1Cl [KSC-1-100]	> 30 µM
Cc1ccc2c(Cl)c(C(=O)NCCCN3CCOCC3)sc2c1 [KUC103874N]	> 30 µM

Further lines, results first:

EC50	Compound
> 30 µM	O=C(c1sc2cc([N+](=O)[O-])ccc2c1Cl)N1CCNCC1
> 30 µM	O=C(NCCCN1CCOCC1)c1sc2cc([N+](=O)[O-])ccc2c1Cl [3-chloranyl-N-(3-morpholin-4-ylpropyl)-6-nitro-1-benzothiophene-2-carboxamide]
